Source: patent US11453673B2, “Substituted [1,2,4]triazolo[4,3-a]pyrazines as phosphodiesterase inhibitors” (Eli Lilly and Company, priority 2018, dated 2022)

Columns and labels:
Format in all cases: biochemical
[1] = target: human PDE3A (catalytic domain) (Homo sapiens (Human), UniProt Q14432); assay: PDE enzyme assay using [3H]cAMP as substrate (SPA); conditions: [3H]cAMP 47 nM
Description: (§1) The nucleotide sequences encoding full-length human PDE1A (NP_001003683.1) and PDE1C (NP_005011.1) are inserted into pFastBac1 (Invitrogen) vector with an N-terminal HIS tag. The nucleotide sequences encoding full-length human PDE4D (NP_006194.2) and catalytic domain (residue 641-1141) of PDE3A (NP_000912.3) are inserted into pFastBac1 (Invitrogen) vector with a C-terminal HIS tag. The nucleotide sequences encoding full-length human PDE6A (NP_000431.2) and PDE6B (AAH00249.1) are inserted into pFastBacDual (Invitrogen) vector with an N-terminal HIS tag and N-terminal Flag tag, respectively, for production of PDE6A/6B dimer. Baculovirus generation and protein expression in Sf9 cells are carried out according to the protocol of Bac-to-Bac Baculovirus Expression system (Invitrogen). The nucleotide sequence encoding full-length human PDE1B (NP_000915.1) is inserted into pIEX4 (Novagen) with a C-terminal HIS tag, and both protein productions in Sf9 cells are carried out according to the vendor's protocol (Novagen). The His tagged PDE proteins are purified using Ni-NTA agarose (Qiagen) followed by size exclusion chromatography on a SUPERDEX© 200 column (GE Healthcare) in storage buffer (20 mM Tris-HCl, pH 7.5, 150 mM NaCl, 10% Glycerol). The Flag tagged PDE proteins including PDE6A/6B are purified using anti-Flag M2-agarose (Sigma), after purification through NiNTA column chromatography and eluted in storage buffer (50 mM Tris-HCl, pH 7.5, 150 mM NaCl, 10% Glycerol, 0.1 mg/ml Flag peptide). All purified proteins are stored at −80° C. in small aliquots.
(§2) All 3′, 5′ cyclic nucleotide PDE enzyme activities are measured with a radiometric enzyme assay based on SPA detection system. Compounds to be tested are diluted in pure DMSO using ten point concentration response curves. Maximal compound concentration in the reaction mixture is either 10 or 100 μM. Compounds at the appropriate concentration are pre-incubated with either of the PDE enzymes for 30 minutes before the reaction is started by the addition of substrate. Reactions are allowed to proceed for 60 minutes at room temperature. Next, reactions are stopped by addition of SPA beads. Samples are read 12 hours later in a MICROBETA™ TRILUX© Counter. IC50 values are calculated by plotting the normalized data vs. log [compound] and fitting the data using a four parameter logistic equation.
(§3) The following PDE activities are measured using [3H]cAMP as reaction substrate: human PDE3A (catalytic domain) and human PDE4D. Both enzymes are cloned and purified following standard procedures. The assay buffer is prepared to give a final concentration in the assay of 50 mM Tris-HCl, 8.3 mM MgCl2, 1.7 mM EDTA and 0.1% BSA at pH 7.5. Final enzyme concentrations are 0.008 and 0.021 nM for PDE3A and PDE4D, respectively. Reactions are started by addition of the substrate, [3H]cAMP, to give a final concentration of 47 nM.

human PDE4D = human PDE4D (Homo sapiens (Human), UniProt Q08499); assay: PDE enzyme assay using [3H]cAMP as substrate (SPA); conditions: Mean ± standard deviation; [3H]cAMP 47 nM
Description: as §1, §2, §3

human PDE6A/6B = human PDE6A/6B (Homo sapiens (Human), UniProt P16499+P35913); assay: PDE enzyme assay using [3H]cGMP as substrate (SPA); conditions: [3H]cGMP 80 nM; read-out: PDE6AB IC50
Description: as §1, §2
The following phosphodiesterase activities are measured using [3H]cGMP as reaction substrate: human PDE6A/6B. The catalytic active form of human PDE6 is a dimer composed of an a (human PDE6A) and […] (human PDE6B). The dimer of human PDE6A/6B is produced by the coexpression and purification strategy, using two purification steps, i.e., NiNTA and anti-FLAG Sepharose chromatography. The assay buffer is prepared to give a final concentration in the assay of 50 mM Tris-HCl, 8.3 mM MgCl2, 1.7 mM EDTA and 0.1% BSA at pH 7.5. The final enzyme concentration is 5 nM. The reactions are started by addition of the substrate, [3H]cGMP, to give a final concentration of 80 nM.

human PDE1A = human PDE1A (Homo sapiens (Human), UniProt P54750); assay: Ca2+-calmodulin dependent PDE enzyme assay (radiometric SPA, [3H]cAMP); conditions: Mean ± standard deviation; [3H]cAMP 47 nM; read-out: PDE 1A IC50
Description: as §1, §2
(§4) PDE1B, PDE1A, and PDE1C are cloned and purified following standard protein generation procedures. […] The final enzyme concentration is 0.25, 0.074 and 0.0012 nM, for PDE1A, PDE1B and PDE1C respectively. The reactions are started by addition of the substrate, [^3H]cAMP, to give a final concentration of 47 nM.

human PDE1B = human PDE1B (Homo sapiens (Human), UniProt Q01064); assay: as above; conditions: Mean ± standard deviation; [3H]cAMP 47 nM; read-out: PDE 1B IC50
Description: as §1, §2, §4

human PDE1C = human PDE1C (Homo sapiens (Human), UniProt Q14123); assay: as above; conditions: Mean ± standard deviation; [3H]cAMP 47 nM; read-out: PDE 1C IC50
Description: as §1, §2, §4

Chain of human PDE3A (catalytic domain) (Q14432 641-1141): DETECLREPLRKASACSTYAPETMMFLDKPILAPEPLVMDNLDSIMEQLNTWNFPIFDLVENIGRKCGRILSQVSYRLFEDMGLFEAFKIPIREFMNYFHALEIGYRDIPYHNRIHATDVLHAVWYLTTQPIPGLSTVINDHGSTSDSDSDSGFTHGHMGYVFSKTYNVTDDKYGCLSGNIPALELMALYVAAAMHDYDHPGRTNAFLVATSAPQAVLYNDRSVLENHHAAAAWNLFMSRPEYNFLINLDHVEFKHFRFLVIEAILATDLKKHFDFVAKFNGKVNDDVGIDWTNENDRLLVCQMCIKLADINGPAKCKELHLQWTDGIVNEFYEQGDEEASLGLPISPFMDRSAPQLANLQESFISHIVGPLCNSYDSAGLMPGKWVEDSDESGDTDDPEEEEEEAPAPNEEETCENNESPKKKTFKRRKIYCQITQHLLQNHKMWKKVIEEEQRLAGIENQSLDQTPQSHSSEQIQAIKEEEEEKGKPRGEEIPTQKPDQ
Chain of human PDE4D (Q08499 other isoform, or with tags, fused parts or gaps): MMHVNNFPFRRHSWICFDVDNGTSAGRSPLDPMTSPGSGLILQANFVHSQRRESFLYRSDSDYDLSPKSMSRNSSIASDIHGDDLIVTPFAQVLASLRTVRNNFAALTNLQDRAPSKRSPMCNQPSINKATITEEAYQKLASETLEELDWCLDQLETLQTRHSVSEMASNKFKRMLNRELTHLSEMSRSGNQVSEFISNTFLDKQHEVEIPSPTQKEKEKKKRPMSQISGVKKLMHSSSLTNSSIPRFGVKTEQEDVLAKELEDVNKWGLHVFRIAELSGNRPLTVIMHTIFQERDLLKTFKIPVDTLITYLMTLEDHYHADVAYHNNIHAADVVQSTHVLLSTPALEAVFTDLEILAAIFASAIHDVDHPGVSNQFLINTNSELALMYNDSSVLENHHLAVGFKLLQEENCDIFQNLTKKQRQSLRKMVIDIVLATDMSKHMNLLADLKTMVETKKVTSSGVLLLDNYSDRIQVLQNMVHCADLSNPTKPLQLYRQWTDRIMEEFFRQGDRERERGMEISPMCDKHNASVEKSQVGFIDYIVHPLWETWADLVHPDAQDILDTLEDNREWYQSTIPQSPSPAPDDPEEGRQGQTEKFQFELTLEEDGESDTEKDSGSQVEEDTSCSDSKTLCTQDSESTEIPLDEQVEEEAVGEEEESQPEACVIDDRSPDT
Chain of human PDE6A/6B (P16499 whole entry): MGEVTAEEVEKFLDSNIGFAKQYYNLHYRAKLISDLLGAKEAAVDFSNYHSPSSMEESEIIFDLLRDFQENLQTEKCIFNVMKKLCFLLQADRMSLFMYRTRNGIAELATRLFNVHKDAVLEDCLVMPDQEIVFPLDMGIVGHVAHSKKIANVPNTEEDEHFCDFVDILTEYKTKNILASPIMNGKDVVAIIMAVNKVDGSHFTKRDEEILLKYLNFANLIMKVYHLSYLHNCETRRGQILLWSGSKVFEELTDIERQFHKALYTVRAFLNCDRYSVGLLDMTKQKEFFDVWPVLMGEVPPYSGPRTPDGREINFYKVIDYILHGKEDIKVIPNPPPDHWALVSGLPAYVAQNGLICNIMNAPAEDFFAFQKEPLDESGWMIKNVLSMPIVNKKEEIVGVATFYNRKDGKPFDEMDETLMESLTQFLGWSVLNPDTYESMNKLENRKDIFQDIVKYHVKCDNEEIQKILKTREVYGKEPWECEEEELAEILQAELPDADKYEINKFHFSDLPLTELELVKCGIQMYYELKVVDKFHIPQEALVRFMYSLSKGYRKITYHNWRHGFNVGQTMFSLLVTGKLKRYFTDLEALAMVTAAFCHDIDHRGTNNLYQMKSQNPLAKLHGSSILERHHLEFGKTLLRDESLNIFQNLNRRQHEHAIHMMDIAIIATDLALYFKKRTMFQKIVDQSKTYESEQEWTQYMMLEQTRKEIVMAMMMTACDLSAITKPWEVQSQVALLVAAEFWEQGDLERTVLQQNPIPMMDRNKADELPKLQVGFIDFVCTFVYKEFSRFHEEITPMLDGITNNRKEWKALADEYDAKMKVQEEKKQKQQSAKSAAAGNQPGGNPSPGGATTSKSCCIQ
Chain of human PDE6A/6B (P35913 whole entry): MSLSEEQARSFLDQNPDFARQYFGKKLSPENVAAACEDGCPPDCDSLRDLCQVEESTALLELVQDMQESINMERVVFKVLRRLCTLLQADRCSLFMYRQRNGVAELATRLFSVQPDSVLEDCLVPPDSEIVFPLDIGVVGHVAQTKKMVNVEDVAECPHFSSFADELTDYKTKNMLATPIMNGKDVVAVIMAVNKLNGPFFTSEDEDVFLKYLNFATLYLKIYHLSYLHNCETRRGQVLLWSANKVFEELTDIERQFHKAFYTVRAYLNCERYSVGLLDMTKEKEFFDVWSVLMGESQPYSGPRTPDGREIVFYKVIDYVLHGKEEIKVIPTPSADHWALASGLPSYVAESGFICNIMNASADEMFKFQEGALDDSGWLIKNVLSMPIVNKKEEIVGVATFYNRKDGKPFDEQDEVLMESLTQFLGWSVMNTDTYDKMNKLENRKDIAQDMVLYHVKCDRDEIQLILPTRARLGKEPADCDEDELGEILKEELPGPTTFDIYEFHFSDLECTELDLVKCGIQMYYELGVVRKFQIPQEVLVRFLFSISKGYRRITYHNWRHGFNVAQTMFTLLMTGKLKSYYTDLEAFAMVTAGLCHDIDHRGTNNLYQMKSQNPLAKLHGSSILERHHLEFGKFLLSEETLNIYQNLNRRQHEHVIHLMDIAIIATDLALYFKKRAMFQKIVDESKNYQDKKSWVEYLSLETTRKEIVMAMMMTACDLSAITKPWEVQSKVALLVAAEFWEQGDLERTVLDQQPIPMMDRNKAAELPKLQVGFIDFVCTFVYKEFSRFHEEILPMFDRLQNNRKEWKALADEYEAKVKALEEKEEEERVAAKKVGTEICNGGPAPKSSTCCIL

Compound	IC50 [1]	IC50 (human PDE4D)	IC50 (human PDE6A/6B)	IC50 (human PDE1A)	IC50 (human PDE1B)	IC50 (human PDE1C)
Cc1c(C)n2c(C3(C4CC4)CC3)nnc2c(=O)n1CC1CCC1 [Example 4, 7-(Cyclobutylmethyl)-3-(1-cyclopropylcyclopropyl)-5,6-dimethyl-[1,2,4]triazolo[4,3-a]pyrazin-8-one]	> 100 µM	24 µM	> 10 µM	0.00371 ± 8e-05 µM	0.00365 ± 0.00188 µM	0.00106 ± 0.00024 µM
CCCCCn1c(C)c(C)n2c(C3(C4CC4)CC3)nnc2c1=O [Example 3, 3-(1-Cyclopropylcyclopropyl)-5,6-dimethyl-7-pentyl-[1,2,4]triazolo[4,3-a]pyrazin-8-one]	> 100 µM	14.3 µM	> 10 µM	0.011 ± 0.002 µM	0.00936 ± 0.00201 µM	0.00126 ± 0.00061 µM
CCC1(c2nnc3c(=O)n(CC4CCCCO4)c(C)c(C)n23)CC1 (single isomer, unassigned) [Example 11, 3-(1-Ethylcyclopropyl)-5,6-dimethyl-7-(tetrahydropyran-2-ylmethyl)-[1,2,4]triazolo[4,3-a]pyrazin-8-one]	> 100 µM	67.2 µM	> 10 µM	0.0132 µM		0.00477 ± 6e-05 µM
Cn1cc(Cc2cn3c(C4(C5CC5)CC4)nnc3c(=O)n2CC2CC2)cn1 [Example 1, 3-(1-Cyclopropylcyclopropyl)-7-(cyclopropylmethyl)-6-[(1-methylpyrazol-4-yl)methyl]-[1,2,4]triazolo[4,3-a]pyrazin-8-one]	> 100 µM	5.59 µM	> 10 µM	0.0203 ± 0.0005 µM	0.0294 ± 0.0116 µM	0.012 ± 0.004 µM
CCCCn1c(C)c(CC)n2c(C3(C4CC4)CC3)nnc2c1=O [Example 16, 7-Butyl-3-(1-cyclopropylcyclopropyl)-5-ethyl-6-methyl-[1,2,4]triazolo[4,3-a]pyrazin-8-one]	> 100 µM	22.3 µM	> 10 µM	0.00867 ± 0.00791 µM	0.00654 ± 0.00261 µM	0.0012 ± 0.00094 µM
Cc1c(C)n2c(C3(C4CC4)CC3)nnc2c(=O)n1CC1CCCCO1 (single isomer, unassigned) [Example 9, 3-(1-Cyclopropylcyclopropyl)-5,6-dimethyl-7-(tetrahydropyran-2-ylmethyl)-[1,2,4]triazolo[4,3-a]pyrazin-8-one]	> 100 µM	33.1 µM	> 10 µM			0.000958 ± 0.000487 µM
CCCCn1c(C)c(C)n2c(C3(C4CC4)CC3)nnc2c1=O [Example 5, 7-Butyl-3-(1-cyclopropylcyclopropyl)-5,6-dimethyl-[1,2,4]triazolo[4,3-a]pyrazin-8-one]	> 100 µM	29.9 µM	> 10 µM	0.0115 ± 0.0036 µM	0.0111 ± 0.003 µM	0.0027 ± 0.00016 µM
Cc1c(C)n2c(C3(C4CC4)CC3)nnc2c(=O)n1CC1CC1 [Example 2, 3-(1-Cyclopropylcyclopropyl)-7-(cyclopropylmethyl)-5,6-dimethyl-[1,2,4]triazolo[4,3-a]pyrazin-8-one]	> 100 µM	23.8 ± 0.8 µM	> 10 µM	0.00373 ± 0.00202 µM	0.00411 ± 0.0011 µM	0.00281 ± 0.00088 µM
Cc1c(C)n2c(C3(C4CC4)CC3)nnc2c(=O)n1CC1CCCCO1 (racemic) [Example 6, 3-(1-cyclopropylcyclopropyl)-5,6-dimethyl-7-(tetrahydropyran-2-ylmethyl)-[1,2,4]triazolo[4,3-a]pyrazin-8-one]	> 100 µM	30.9 µM	> 10 µM			0.00188 ± 0.00056 µM
Cc1c(C)n2c(C3(C4CC4)CC3)nnc2c(=O)n1CC1(C)CC1 [Example 15, 3-(1-Cyclopropylcyclopropyl)-5,6-dimethyl-7-[(1-methylcyclopropyl)methyl]-[1,2,4]triazolo[4,3-a]pyrazin-8-one]	9.6 µM	14 ± 1.3 µM	> 10 µM	0.0031 ± 0.0011 µM	0.0049 ± 0.0018 µM	0.0014 ± 0.0003 µM
Cc1c(C)n2c(C3(C4CC4)CC3)nnc2c(=O)n1CC1CCCCO1 (single isomer, unassigned) [Example 10]	> 100 µM	21.4 µM	> 10 µM			0.002 ± 0.000311 µM

Continued, in another order:

IC50 [1]	IC50 (human PDE4D)	IC50 (human PDE6A/6B)	Compound	IC50 (human PDE1A)	IC50 (human PDE1B)	IC50 (human PDE1C)
> 100 µM	57.7 µM	2.66 µM	Cc1c(C)n2c(C3(C)CC3)nnc2c(=O)n1CC1CCCCO1 (racemic) [Example 8, 5,6-Dimethyl-3-(1-methylcyclopropyl)-7-(tetrahydropyran-2-ylmethyl)-[1,2,4]triazolo[4,3-a]pyrazin-8-one]			
> 100 µM	40.8 µM	> 10 µM	Cc1c(C)n2c(C3(C)CC3)nnc2c(=O)n1CC1CCCCO1 (single isomer, unassigned) [Example 14, 5,6-Dimethyl-3-(1-methylcyclopropyl)-7-(tetrahydropyran-2-ylmethyl)-[1,2,4]triazolo[4,3-a]pyrazin-8-one]			
> 100 µM	46.5 µM	> 10 µM	CCC1(c2nnc3c(=O)n(CC4CCCCO4)c(C)c(C)n23)CC1 (racemic) [Example 7, 3-(1-Ethylcyclopropyl)-5,6-dimethyl-7-(tetrahydropyran-2-ylmethyl)-[1,2,4]triazolo[4,3-a]pyrazin-8-one]			0.00776 µM
> 100 µM	> 100 µM	> 10 µM	Cc1c(C)n2c(C3(C)CC3)nnc2c(=O)n1CC1CCCCO1 (single isomer, unassigned) [Example 13, 5,6-Dimethyl-3-(1-methylcyclopropyl)-7-(tetrahydropyran-2-ylmethyl)-[1,2,4]triazolo[4,3-a]pyrazin-8-one]			
> 100 µM	31 µM	7.62 µM	CCC1(c2nnc3c(=O)n(CC4CCCCO4)c(C)c(C)n23)CC1 (single isomer, unassigned) [Example 12, 3-(1-Ethylcyclopropyl)-5,6-dimethyl-7-(tetrahydropyran-2-ylmethyl)-[1,2,4]triazolo[4,3-a]pyrazin-8-one]	0.0446 µM		0.0132 µM
